# According to US10179913B2, “MicroRNA-328 anti-sense composition and therapeutic use” (KAOHSIUNG MEDICAL UNIVERSITY, priority 2015, dated 2019):
# Entries after “also recorded” stand apart in the source; their conditions may differ. Marks after values point to notes of the source that are not given here. l = locked nucleic acid (LNA); d = 2'-deoxy (DNA)
# Experiments:
# [1] = system: miR-328; assay: In vitro inhibition of miR-328 expression by antisense oligonucleotides transfected into ARPE-19 RPE cells (qRT-PCR, normalized to U6); format: cell-based, human; conditions: for inhibition of miR-328 expression in vitro (in words): RPE cells, 30, 50 and 100 nM; for inhibitory effect on miR-328 expression: RPE cells (ARPE-19), Lipofectamine 2000 transfection, 24 hours
# Experimental: Cell Culture, Treatments, and Transfection
# An RPE cell line called “ARPE-19” was grown in Dulbecco's modified Eagle's medium (DMEM)/F12 medium. The cell line was grown with 1% penicillin/streptomycin and 10% heat-inactivated fetal bovine serum (FBS) at 37° C. in a humidified atmosphere of 95% air/[…] carbon dioxide (CO2). To conduct the transfection experiments, cells were seeded into a 12-well plate at a density of 1×10^5 cells/well. After achieving 70% confluence in a well, antisense oligonucleotides (concentrations of 30, 50 and 100 nM) were transfected with Lipofectamine 2000 (Invitrogen) according to the manufacturer's instructions. After 24 hours of incubation, cells were lysed for further studies.
# Detect the Inhibition of miR-328 Expression by Antisense Oligonucleotides
# Total RNA was extracted from cultured cells using Trizol according to the manufacturer's instructions. RNA purity was checked using A260/A280 readings. miR-328 was first reversed transcribed to miR-328 cDNA using the following procedure: 5 ng of RNA was reverse transcribed with miR-328 specific primer and MultiScribe reverse transcriptase kit (Applied Biosystems). To measure the miR-328 expression, quantitative real-time PCR was performed on an ABI 7500 real-time PCR machine (Applied Biosystems) with miR-328 specific probe according to manufacturer's instructions (Applied Biosystems). The inhibitory effect by antisense oligonucleotides was evaluated by measuring the level of miR-328 cDNA by quantitative real-time PCR. The expression level of miR-328 was normalized to that of a small non-coding nuclear RNA U6 as the internal control.
# [2] = system: myopia-induced C57BL/6J mice; assay: Example 4: efficacy in myopia-induced mice, delta axial length; format: in vivo; conditions: for reduction of delta axial length compared to control group: 1 μM on day 30, 37 and 44, versus saline; for Delta axial length, mm mean (SD): right (myopia) minus left eye, 30 μL to right eye on day 30, 37 and 44, eyes collected day 51; for Delta axial length, mm mean (SD) / activity in treating myopia in mice (in words) / average delta axial length compared with control animals (in words): 1 μM; for activity in treating myopia in mice (in words): decrease of average axial length; for average delta axial length compared with control animals (in words): versus saline, Mann-Whitney U test
# Experimental: The 21 days old C57BL/6J mice were purchased from the National Laboratory Animal Center, Taiwan. All animal experiments were in compliance with the ARVO Statement for the Use of Animals in Ophthalmic and Vision Research. The procedure of myopia induction is described briefly as the following: Right eyes of the 23 days old mice were covered to induce myopia (i.e. nearsightedness) and the left eyes were uncovered. Then the right eyes of the myopia-induced mice were treated with 30 μL of saline (i.e. control group), DNA16mer, DNA17mer, LNA403, LNA404, or LNA405, at 1 μM on 30th, 37th and 44th day. Mice were sacrificed on 51th day and the eyes were collected. The isolated eyes were photographed under a dissection microscope and the axial lengths were measured using […] Myopia (nearsightedness) causes elongation of axial length, which is the major pathological change in myopia. The difference of axial length (i.e. delta axial length) between the covered right eye and the non-covered left eye of the same mouse indicates the severity of myopia. Statistical evaluation was done by using Mann-Whitney U test. Analysis with p-values<0.05 being considered significant.
# [3] = system: myopia-induced C57BL/6J mice; assay: Example 5: validation of DNA 16mer and LNA 403 versus atropine in myopia-induced mice; format: in vivo; conditions: for Mean of delta AXL: right eye covered 4 weeks, 30 μL on day 30, 37 and 44, day 51
# Experimental: The 21 days old C57BL/6J mice were purchased from the National Laboratory Animal Center, Taiwan. All animal experiments were in compliance with the ARVO Statement for the Use of Animals in Ophthalmic and Vision Research. The procedure of myopia induction is described briefly as the following: Right eyes of the 23 days old mice were covered for 4 weeks to induce myopia (i.e. nearsightedness) and the left eyes were uncovered. Then the right eyes of the myopia-induced mice were treated with 30 μL of saline (i.e. negative control group), 1% atropine (i.e. positive control group), DNA16mer or LNA403 at 1 μM on 30th, 37th and 44th day. Mice were sacrificed on 51th day and the eyes were collected. The isolated eyes were photographed under a dissection microscope and the axial lengths were measured using imageJ and a proprietary software for automatic measure. Myopia (nearsightedness) causes elongation of axial length, which is the major pathological change in myopia. The difference of axial length (i.e. delta axial length) between the covered right eye and the non-covered left eye of the same mouse indicates the severity of myopia. Statistical evaluation was done by using Mann-Whitney U test. Analysis with p-values <0.05 being considered significant.
# [4] = Safety in animal studies; format: in vivo
# [5] = system: myopia-induced C57BL/6J mice; assay: Example 6: confirmation of DNA 16mer by a CRO in myopia-induced mice; format: in vivo; conditions: for left eye axial, mm Mean: left eye uncovered
# Excerpt: The procedure of myopia induction is: The 21 days old C57BL/6J mice were purchased from the National Laboratory Animal Center, Taiwan. All animal experiments were in compliance with the ARVO Statement for the Use of Animals in Ophthalmic and Vision Research. The procedure of myopia induction is described briefly as the following: Right eyes of the 23 days old mice were covered for 4 weeks to induce myopia and the left eyes were uncovered. Then the right eyes of the myopia-induced mice were treated with […], of saline (i.e. negative control group), 1% atropine (i.e. positive control group), 10 nM, 100 nM, and 1 μM of DNA 16mer on 30th, 37th and 44th day. Mice were sacrificed on 51th day and the eyes were collected. The isolated eyes were photographed under a dissection microscope and the axial lengths were measured using imageJ and a proprietary software for automatic measure. Myopia (nearsightedness) causes elongation of axial length, which is the major pathological change in myopia. The difference of axial length (i.e. delta axial length) between the covered right eye and the non-covered left eye of the same mouse indicates the severity of myopia.
# [6] = system: myopic pigmented rabbits; assay: Example 7: DNA 16mer in myopic pigmented rabbits, delta axial length by A-scan; format: in vivo, rabbit; conditions: 20 μL to right eye every other day from day 35, AXL of day 61
# Experimental: The procedure of myopia induction: The 3 days old pigmented rabbits were purchased from the DA-ZONG livestock farm, Taiwan. All animal experiments were in compliance with the ARVO Statement for the Use of Animals in Ophthalmic and Vision Research. On the age of 7 days, the right eye of the rabbit was covered for 8 weeks to induce myopia, and the left eye left uncovered. The axial lengths (AXL) of both eyes were measured by A-scan (Sonomed®, PACSCAN 300A, USA) once a week since day 21. We defined myopia as right eye AXL is longer than left eye AXL by 0.2 mm or longer on day 35. If a rabbit reached this defined criterion, the right eye of such a myopic rabbit was treated with […], of saline (i.e. control group) or DNA16mer (20 μL) at 10 μM or 50 uM every other day since day 35 till day 63. The final AXL measured on day 61 was used to obtain to calculate the difference between right AXL and left AXL (i.e. delta AXL). If there is no therapeutic effect, the delta AXL will be a positive value.
Molecule,inhibition of miR-328 expression in vitro (in words) [1],reduction of delta axial length compared to control group [2] [mm],"Delta axial length, mm mean (SD) [2]",inhibitory effect on miR-328 expression ([1]; 30 nM) [%],inhibitory effect on miR-328 expression ([1]; 50 nM) [%],inhibitory effect on miR-328 expression ([1]; 100 nM) [%],also measured
"5′-GGGCAGAGAGGGCCA-3′ (DNA, backbone not given here) [15mer, anti-sense miR-328 oligodeoxyribonucleotide]",did not show any activity; also recorded: no inhibitory effect,–,–,–,–,–,–
"5′-+G*+A*+A*+G*G*G*C*A*G*A*G*A*G*G*+G*+C*+C*+A-3′ (antisense GAAGGGCAGAGAGGGCCA; sugars from the 5' end l4 d10 l4, all phosphorothioate, methylation of C not given here) [LNA405, LNA-modified and PS bond-modified anti-sense miR-328 oligonucleotide, 18 mer]",inhibited,0.035,−0.017 (0.054) mm,98,98,99,–
"5′-+C*+G*+G*+A*A*G*G*G*C*A*G*A*G*A*G*G*+G*+C*+C*+A-3′ (antisense CGGAAGGGCAGAGAGGGCCA; sugars from the 5' end l4 d12 l4, all phosphorothioate, methylation of C not given here) [LNA403, LNA-modified and PS bond-modified anti-sense miR-328 oligonucleotide, 20 mer]",inhibited,0.054,−0.036 (0.079)* mm,97,97,90,activity in treating myopia in mice (in words) [2]: effective in treating myopia in mice; activity in treating myopia in mice (in words) ([2]; listed as 403): exhibited an activity for treating myopia; efficacy in reducing elongation of eyeball compared with 1% atropine (in words) ([3]; 1 μM): more effective than 1% atropine; Mean of delta AXL ([3]; 1 μM): −0.052
"5′-AAGGGCAGAGAGGGCCA-3′ (DNA, backbone not given here) [DNA 17mer, anti-sense miR-328 oligodeoxyribonucleotide]",inhibited,0.065,−0.047 (0.073)* mm,43,41,48,activity in treating myopia in mice (in words) ([2]; listed as 17mer): exhibited an activity for treating myopia; activity in treating myopia in mice (in words) ([2]; listed as DNA17mer): effective in treating myopia in mice; average delta axial length compared with control animals (in words) [2]: statistically significantly smaller; safety in animal studies (in words) [4]: safe
"5′-+G*+G*+A*+A*G*G*G*C*A*G*A*G*A*G*G*+G*+C*+C*+A-3′ (antisense GGAAGGGCAGAGAGGGCCA; sugars from the 5' end l4 d11 l4, all phosphorothioate, methylation of C not given here) [LNA404, LNA-modified and PS bond-modified anti-sense miR-328 oligonucleotide, 19 mer]",inhibited,0.025,−0.007 (0.100) mm,98,98,99,–
"CN1[C@@H]2CC[C@H]1C[C@@H](OC(=O)C(CO)c1ccccc1)C2 (stereo partly drawn) [Atropine, atropine, reference compound]",–,–,–,–,–,–,"Delta axial length Mean ([5]; 1% atropine): −0.060; right eye axial, mm Mean ([5]; 1% atropine to right (myopia) eye): 3.049 mm; left eye axial, mm Mean ([5]; 1% atropine to right eye): 3.108 mm; Mean of delta AXL ([3]; 1% atropine): −0.037"
"5′-AGGGCAGAGAGGGCCA-3′ (DNA, backbone not given here) [DNA 16mer, anti-sense miR-328 oligodeoxyribonucleotide]",inhibited,0.077,−0.059 (0.061)* mm,39,35,49,"activity in treating myopia in mice (in words) ([2]; listed as 16mer): exhibited an activity for treating myopia; activity in treating myopia in mice (in words) ([2]; listed as DNA16mer): effective in treating myopia in mice; average delta axial length compared with control animals (in words) [2]: statistically significantly smaller; Delta axial length Mean ([5]; 10 nM): −0.056; right eye axial, mm Mean ([5]; 10 nM to right (myopia) eye): 3.083 mm; left eye axial, mm Mean ([5]; 10 nM to right eye): 3.139 mm; Delta axial length Mean ([5]; 100 nM): −0.069; right eye axial, mm Mean ([5]; 100 nM to right (myopia) eye): 3.023 mm; left eye axial, mm Mean ([5]; 100 nM to right eye): 3.092 mm; Delta axial length Mean ([5]; 1 μM): −0.058; right eye axial, mm Mean ([5]; 1 μM to right (myopia) eye): 3.052 mm; left eye axial, mm Mean ([5]; 1 μM to right eye): 3.110 mm; efficacy in reducing elongation of eyeball compared with 1% atropine (in words) ([3]; 1 μM): more effective than 1% atropine; Mean of delta AXL ([3]; 1 μM): −0.055; Delta axial length Mean ([6]; 10 μM): −0.234; Delta axial length Mean ([6]; 50 μM): −0.370; safety in animal studies (in words) [4]: safe"
